Data published in patent US20170252469A9, “Method for predicting autism spectrum disorders by cannabinoid and cannabinoid receptor expression” (The United of America as represented by the Secretary of …, priority 2011, published 2017).
“Also recorded” adds a separate entry of the source.

Columns and labels:
[1] = test system: 129S1/SvImJ mice; test: marble burying test in 129S1/SvImJ mice, acute treatment; type: in vivo, mouse; conditions: 129S, acetaminophen 100 mg/kg i.p., FIG. 3d
Procedure: (§1) The cannabinoid agonist WIN55,212-2 (Ascent Scientific, Princeton, N.J., USA) was dissolved initially in dimethyl-sulfoxide (DMSO Sigma) and was diluted with saline (1:10) to administer 0.1 mg/kg i.p. in 10% DMSO to mice. […] Injections were given 30 minutes prior to introduction to the testing arena for conditioning, and 50 min prior to behavior testing.

[2] = test system: 129S1/SvImJ mice; test: three-chamber social novelty test in 129S1/SvImJ mice; type: in vivo, mouse; conditions: 129S, FIG. 3c; for time in the arena chamber with a new stranger mouse: acetaminophen 100 mg/kg i.p.
Procedure: as §1
(§2) The social approach test ended with confinement of the subject into the center chamber and closing of the slat doors. A new stranger mouse was then placed under the empty cup cage, the doors were opened, and behavior was recorded for another 10 min under low red light to assess preference for social novelty. At the end of the test, stranger mice were returned to their home cages for use in subsequent tests, and subject mice were removed from the arena and placed in a marble burying test. The number of boli in the center of the arena was counted prior to cleaning the arena with a solution of 70% EtOH and paper towels prior to conditioning and testing the next animal. Digital videos were analyzed for box entries, time in box and social sniffing time by observers blind to mouse strain or drug treatments.

[3] = test system: BTBR mice; test: 2-AG levels after injections in early postnatal development; type: in vivo, mouse; conditions: 100 mg/kg i.p. injections from 18-21 days postnatal, 59 days, FIG. 6
Procedure: (§3) The mice were then tested for marble burying and evaluated for neurochemical measures.

[4] = test system: BTBR mice; test: three-chamber social approach test in BTBR mice; type: in vivo, mouse
From the text: (§4) BTBR T+tf/J, 129S1/SvImJ and C57BL/6 mouse colony founders were originally obtained from the Jackson Laboratory (Bar Harbor, Me., USA). These strains were bred in the animal facilities of the University of Texas Health Science Center at San Antonio through 2 generations. After weaning at 23-25 days of age, male littermates were housed in groups of 4-5 per cage until behavioral testing at 3-4 months of age. Mice had ad libitum access to food (Teklad™ rodent diet, Harlan, Indianapolis, Ind., USA) and water in ventilated clear plastic cages lined with chipped wood bedding.
as §1
The three-chamber sociability testing procedure for mice is described in detail in Yang et al. Curr. Protoc. Neurosci., Chapter 8: Unit 8. 26 (2011), our study was conducted in a manner consistent with that protocol. Mice were introduced into the center chamber of an acrylic three-chamber sociability arena, measuring 30×22×61 cm with a light tan bottom, black side walls and two transparent interior walls with slat door openings of 10 cm^2 […] dividing the arena into 3 chambers, for 20 min prior to behavioral testing. As described in Gould et al. J. Neurochem., 116: 291-303 (2011), pre-conditioning was performed under low red light (16 lux) at first for 10 min with the mouse confined in the center chamber, then with the doors opened so the subject could explore the entire arena for 10 min longer. Just prior to testing, subjects were briefly confined in the center chamber while an empty wire cup cage was placed at one end of the arena, and a stranger mouse of the same strain was placed under an identical cup cage at the opposite end. Stranger mice were neither litter- nor cage-mates of the subjects and were housed in a separate ventilated cage rack. Stranger mice were pre-conditioned under cup cages in 3 sessions of 30 min each in the day(s) prior to testing, separated by 1 hour reprises in their home cages. Cup cages were topped with weighted jars (9 cm high×7 cm diameter) to prevent mice from climbing on top of them. Digital video cameras (Hewlett-Packard Photosmart™ R742, Palo Alto, Calif., USA) positioned on top of tripods overseeing the arenas were turned on, the doors were removed and social approach behavior was recorded for 10 min under low red light.

[5] = test system: BTBR mice; test: three-chamber social novelty test in BTBR mice; type: in vivo, mouse; conditions: WIN 55,212-2 0.1 mg/kg i.p.; for time in the chamber with the novel stranger / chamber entries: acetaminophen 100 mg/kg; for time in the chamber with the novel stranger: vs controls; for chamber entries: social novelty test, BTBR
Procedure: as §1, §2

[6] = test system: BTBR and C57BL/6 mice; test: marble burying after injections in early postnatal development; type: in vivo, mouse; conditions: 100 mg/kg i.p. injections from 18-21 days postnatal, 59 days, FIG. 5
Procedure: as §3

[7] = test system: mice; conditions: administration of anandamide or high doses of acetaminophen; Umathe et al. 2009; cited from earlier work
[8] = test system: 5-HT receptors; conditions: literature; cited from earlier work
[9] = test system: 129S1/SvImJ mice; test: three-chamber social approach test in 129S1/SvImJ mice; type: in vivo, mouse; conditions: 129S
From the text: as §4, §1
The three-chamber sociability testing procedure for mice is described in detail in Yang et al. Curr. Protoc. Neurosci., Chapter 8: Unit 8. 26 (2011), our study was conducted in a manner consistent with that protocol. Mice were introduced into the center chamber of an acrylic three-chamber sociability arena, measuring 30×22×61 cm with a light tan bottom, black side walls and two transparent interior walls with slat door openings of 10 cm^2 […] dividing the arena into 3 chambers, for 20 min prior to behavioral testing. As described in Gould et al. J. Neurochem., 116: 291-303 (2011), pre-conditioning was performed under low red light (16 lux) at first for 10 min with the mouse confined in the center chamber, then with the doors opened so the subject could explore the entire arena for 10 min longer. […] Digital video cameras (Hewlett-Packard Photosmart™ R742, Palo Alto, Calif., USA) positioned on top of tripods overseeing the arenas were turned on, the doors were removed and social approach behavior was recorded for 10 min under low red light.

[10] = test system: 5-HT neurons; conditions: literature; cited from earlier work
[11] = test system: BTBR mice; test: marble burying test in BTBR mice, acute treatment; type: in vivo, mouse; conditions: 30 min, FIG. 2d
Procedure: as §1

## CC(=O)Nc1ccc(O)cc1 [acetaminophen]
[1]
  marble burying: greater than in vehicle-control or WIN 55,212-2 treated 129S mice
[1]; listed as Acetaminophen
  marble burying: increased marble burying behavior relative to control or WIN 55,212 treatments
[2]
  time in the arena chamber with a new stranger mouse: spent significantly more time than controls in the arena chamber with a new stranger mouse
[2]; listed as Acetaminophen
  time in the arena chamber with a new stranger mouse: increased dwelling near new strangers relative to controls
[3]
  2-AG levels: significant affect on 2-AG levels; also recorded: diminution of 2-AG levels
[4]; 100 mg/kg i.p. 50 min prior to testing, adult male BTBR, FIG. 1
  dwelling near confined stranger mice: increased dwelling near confined stranger mice
[4]; 400 mg/kg i.p. 50 min prior to testing, adult male BTBR, FIG. 1
  dwelling near confined stranger mice: increased dwelling near confined stranger mice
[4]; acetaminophen 100 mg/kg i.p., vs vehicle controls or WIN 55,212-2 0.1 mg/kg
  time in the chamber with the empty cage: less time in the chamber with the empty cage
[4]; acetaminophen 100 mg/kg i.p., vs vehicle controls or WIN 55,212-2 0.1 mg/kg, FIG. 2a
  time in the chamber with the stranger mouse: increased dwelling near stranger mice; also recorded: spent more time in the chamber with the stranger mouse
[4]; adult male BTBR, dose-response 1-400 mg/kg i.p., FIG. 1
  lowest dose to significantly increase time spent in the chamber with a stranger mouse above saline-injected controls: 100 mg/kg
[5]; FIG. 2c
  time in the chamber with the novel stranger: reduced time spent in the chamber of the arena with a novel stranger; also recorded: spent less time in the box with the novel stranger than controls
[5]
  chamber entries: 50±7
[6]
  marble burying behavior: induced significant marble burying behavior
[7]
  social interactions: promote social interactions in mice
[8]
  affinity for 5-HT receptors: little to no affinity for 5-HT receptors
[9]; FIG. 3b
  time spent sniffing the stranger mouse or investigating the empty cage: trend toward acetaminophen-treated 129S mice spending more time investigating strangers that did not reach significance
[9]; acetaminophen 100 mg/kg, WIN 55,212-2 0.1 mg/kg i.p.
  chamber entries: 21±5

## Cc1c(C(=O)c2cccc3ccccc23)c2cccc3c2n1[C@H](CN1CCOCC1)CO3 [WIN 55,212-2]
[10]
  presynaptic 5-HT release in brain: inhibit presynaptic 5-HT release in brain
[2]; WIN 55,212-2 0.1 mg/kg i.p.
  dwelling in the center chamber: increased dwelling in the center chamber of the arena
[11]
  marbles buried: trend toward WIN 55212 treated mice burying fewer than controls
[4]; WIN 55,212-2 0.1 mg/kg i.p., social approach, FIG. 2a
  time in the arena center: increased lingering in the arena center
[5]; social novelty, FIG. 2c
  time in the arena center: reduced dwelling in the arena center; also recorded: spent less time than the other groups in the arena center
[5]; FIG. 2c
  time in the chamber with the novel stranger: reduced time spent in the chamber of the arena with a novel stranger; also recorded: spent less time in the box with the novel stranger than controls
[5]
  chamber entries: 19±3
[9]; WIN 55,212-2 0.1 mg/kg i.p.
  time in the center chamber: increased time spent by 129S mice in the arena center; also recorded: spent more time than acetaminophen (100 mg/kg) or vehicle (saline±10% DMSO) treated mice in the center chamber

## CCCCC/C=C\C/C=C\C/C=C\C/C=C\CCCC(=O)NCCO [anandamide, N-arachidonoylethanolamine]
[7]
  social interactions: promote social interactions in mice
